# Data: PubChem BioAssay AID1636 (PCMD, 2009)
# Biological target: Procathepsin L (Homo sapiens) (UniProt P07711)
# Experiment: CTSL enzyme inhibitors – biochemical, probe 2, dose response (AID 1636)
# Details: purified human cathepsin L enzyme inhibition
# Chain of Procathepsin L (Homo sapiens) (P07711 114-288 limits assumed): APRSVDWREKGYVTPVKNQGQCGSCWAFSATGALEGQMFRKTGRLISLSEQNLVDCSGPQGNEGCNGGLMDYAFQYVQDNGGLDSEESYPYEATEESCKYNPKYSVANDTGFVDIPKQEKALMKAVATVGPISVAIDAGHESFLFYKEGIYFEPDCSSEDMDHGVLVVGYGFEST
# Chain of Procathepsin L (Homo sapiens) (P07711 292-333 limits assumed): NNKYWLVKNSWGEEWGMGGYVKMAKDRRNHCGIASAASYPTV
smiles,measurement,value
CC(C)(C)OC(=O)N[C@@H](Cc1c[nH]c2ccccc12)C(=O)NNC(=O)OCC(=O)N1CCCc2ccccc21,IC50,7 nM
